Measured values taken from patent publication US12421279B2, “Cyclic peptide antiviral agents and methods using same” (priority 2016, dated 2025).
“And” between values parts separate entries of the source, which are not always exact repeats. Identical values can stand only once. Like-named read-outs stand apart in the source and are kept apart here. *1 amine or outer side, *2 acyl side, *3 side chain or, on linkers, in order; H or OH if unused. Where a SMILES comes first, the peptide text is derived from it. Bridges are numbered along the chain shown (N, C = ends). [ ]: non-standard residue; d: D form. X2 = O=C([C@@H]1C[C@H](n2cc([C]34[CH]5[CH]6[CH]7[CH]3[Fe]6754389%10[CH]4[CH]3[CH]8[CH]9[CH]4%10)nn2)CN1[*:1])[*:2]; X17 = O=C([C@@H]1C[C@H](n2cc(C3=CC=C[CH]3[Fe][CH]3C=CC=C3)nn2)CN1[*:1])[*:2]; X15 = CC(C)(C)c1ccc(-c2cn([C@H]3C[C@@H](C(=O)[*:2])N([*:1])C3)nn2)cc1; X18 = O=C([C@@H]1C[C@H](n2cc(-c3ccc(-c4ccccc4)cc3)nn2)CN1[*:1])[*:2]; X1 = O=C([C@@H]1C[C@H](n2cc(-c3ccc(-c4cccs4)cc3)nn2)CN1[*:1])[*:2]; X16 = CC(C)c1ccc(-c2cn([C@H]3C[C@@H](C(=O)[*:2])N([*:1])C3)nn2)cc1; X11 = Cc1ccc(Cc2cn([C@H]3C[C@@H](C(=O)[*:2])N([*:1])C3)nn2)c(C)c1; X19 = Cc1cc(C)cc(Cc2cn([C@H]3C[C@@H](C(=O)[*:2])N([*:1])C3)nn2)c1; X4 = O=C([C@@H]1C[C@H](n2cc(C3C4CC5CC(C4)CC3C5)nn2)CN1[*:1])[*:2]; X6 = O=C([C@@H]1C[C@H](n2cc(-c3ccc(-c4cccs4)s3)nn2)CN1[*:1])[*:2]; X12 = O=C([C@@H]1C[C@H](n2cc(Cc3ccc(Cl)c(F)c3)nn2)CN1[*:1])[*:2]; X13 = O=C([C@@H]1C[C@H](n2cc(-c3cc4ccccc4cn3)nn2)CN1[*:1])[*:2]; X20 = Cc1ccc(Cc2cn([C@H]3C[C@@H](C(=O)[*:2])N([*:1])C3)nn2)cc1C; X10 = Cc1ccc(Cc2cn([C@H]3C[C@@H](C(=O)[*:2])N([*:1])C3)nn2)cc1; X9 = CCc1ccc(-c2cn([C@H]3C[C@@H](C(=O)[*:2])N([*:1])C3)nn2)cc1; X7 = Cc1cccc(Cc2cn([C@H]3C[C@@H](C(=O)[*:2])N([*:1])C3)nn2)c1; X8 = O=C([C@@H]1C[C@H](n2cc(Cc3ccc(Cl)cc3)nn2)CN1[*:1])[*:2]; X3 = Cc1ccccc1Cc1cn([C@H]2C[C@@H](C(=O)[*:2])N([*:1])C2)nn1; X5 = O=C([C@@H]1C[C@H](n2cc(Cc3ccc(I)cc3)nn2)CN1[*:1])[*:2]; X14 = O=C([C@@H]1C[C@H](n2cc(Cc3ccccc3)nn2)CN1[*:1])[*:2]; Suc = O=C(CCC(=O)[*:2])[*:1]

Experiments:
wild type gp120 YU-2 = molecular target: T1, wild type gp120 YU-2 (Human immunodeficiency virus type 1 group M subtype B, UniProt P35961); experiment: Isothermal titration calorimetry binding to gp120; design: species or system HIV-1
T1 construct: into 30 μM of YU2 full-length gp120 at 25° C; made in house; host or cells: HEK 293F
Procedure: FIGS. 9A-9C illustrate cPT binding and thermodynamic profile of monomeric wild type gp120 YU-2 for cPTs 3 (FIGS. 9A and 9C) and 36 (FIGS. 9B and 9C). Compound solution, 390 μM (for 3) or 200 μM (for 36), was titrated in 8 μL steps into 30 μM of YU2 full-length gp120 at 25° C. in the reaction chamber of a VP-ITC instrument using 1×PBS buffer at pH 7.3. The resulting heat changes were integrated, and the values obtained were fitted to a quadratic binding equation (one site binding model).
cPT dissociation constants were determined at 25° C. on a VP-Isothermal Titration calorimeter (VP-ITC) system (MicroCal™, GE Healthcare, Freiburg). 200 μM (for 36) or 390 μM (for 3) compound solutions were in 8 μL steps titrated into 30 μM of wild type gp120 YU-2 at 25° C. using 1×PBS buffer at pH 7.3. The resulting heat change upon injection was integrated over a time range of 300 sec, and the obtained values were fitted to a standard single-site binding model using ORIGIN®.

HOS.T4.R5 cells = details: highest concentrations used 100 μM, 24 h post-exposure
Procedure: cPTs 36 and 37 were tested for cytotoxicity in vitro with HOS.T4.R5 cells. The latter were seeded at […] per well and incubated with peptides as described elsewhere herein for the infection inhibition assays. Cell viability was determined using the tetrazolium salt premix reagent WST-1 from TaKaRa Bio, Inc., by following the manufacturer's protocol. The formazan product was measured 24 h post-exposure using a microplate reader (Molecular Devices) at an absorbance wavelength of 450 nm.

[1] = read-out: HIV-1Bal.01 infection inhibition IC50, HIV-1Bal.01 pseudovirus, HOS.T4.R5 cells
[2] = read-out: HIV-1 IC50, HIV-1Bal.01 infection inhibition, Table 1

Row | Structure (SMILES) | IC50 (HIV-1Bal.01; [1]) | IC50 (HIV-1Bal.01; [2]) | also measured
1 | CC[C@H](C)[C@@H]1NC(=O)[C@H](CC(N)=O)NC(=O)[C@@H](N)CC(=O)NCCCC[C@@H](C(N)=O)NC(=O)[C@H](Cc2c[nH]c3ccccc23)NC(=O)[C@@H]2C[C@H](n3cc([C]45[CH]6[CH]7[CH]8[CH]4[Fe]786549%10%11[CH]5[CH]4[CH]9[CH]%10[CH]5%11)nn3)CN2C1=O (stereo partly shown) [cPT 3] (H-DNI[X2]WK-NH2; lactam 1-6) | – | – | ΔH (wild type gp120 YU-2; ITC, 25° C.): -5.96 kcal/mol and -5.96 ± 0.13 kcal/mol; ΔS (wild type gp120 YU-2; ITC, 25° C.): 0.00922 kcal/mol; −TΔS (wild type gp120 YU-2; ITC, 25° C.): -2.75 kcal/mol
2 | CC[C@H](C)[C@@H]1NC(=O)[C@H](CC(N)=O)NC(=O)[C@@H](N)CC(=O)NCCCC[C@@H](C(N)=O)NC(=O)[C@H](Cc2c[nH]c3ccccc23)NC(=O)[C@@H]2C[C@H](n3cc(C4=CC=C[CH]4[Fe][CH]4C=CC=C4)nn3)CN2C1=O (stereo partly shown) [cPT 3] (H-DNI[X17]WK-NH2; lactam 1-6) | – | – | Kd (wild type gp120 YU-2): 415 nM
3 | CC[C@H](C)[C@@H]1NC(=O)[C@H](CC(N)=O)NC(=O)[C@@H](N)CC(=O)NCCCC[C@@H](C(N)=O)NC(=O)[C@H](Cc2c[nH]c3ccccc23)NC(=O)[C@@H]2C[C@H](n3cc(Cc4ccc(C)cc4)nn3)CN2C1=O [cPT 24] (H-DNI[X10]WK-NH2; lactam 1-6 (inferred); N-terminus and C-terminus assumed) | ~180 nM | 180 ± 9 nM | –
4 | CC[C@H](C)[C@@H]1NC(=O)[C@H](CC(N)=O)NC(=O)[C@@H](N)CC(=O)NCCCC[C@@H](C(N)=O)NC(=O)[C@H](Cc2c[nH]c3ccccc23)NC(=O)[C@@H]2C[C@H](n3cc(Cc4ccccc4C)nn3)CN2C1=O [cPT 25] (H-DNI[X3]WK-NH2; lactam 1-6 (inferred); N-terminus and C-terminus assumed) | ~5100 nM | 5100 ± 220 nM | –
5 | CC[C@H](C)[C@@H]1NC(=O)[C@H](CC(N)=O)NC(=O)[C@@H](N)CC(=O)NCCCC[C@@H](C(N)=O)NC(=O)[C@H](Cc2c[nH]c3ccccc23)NC(=O)[C@@H]2C[C@H](n3cc(Cc4cccc(C)c4)nn3)CN2C1=O [cPT 26] (H-DNI[X7]WK-NH2; lactam 1-6 (inferred); N-terminus and C-terminus assumed) | ~220 nM | 220 ± 42 nM | –
6 | CC[C@H](C)[C@@H]1NC(=O)[C@H](CC(N)=O)NC(=O)[C@@H](N)CC(=O)NCCCC[C@@H](C(N)=O)NC(=O)[C@H](Cc2c[nH]c3ccccc23)NC(=O)[C@@H]2C[C@H](n3cc(Cc4ccc(C)cc4C)nn3)CN2C1=O [cPT 27] (H-DNI[X11]WK-NH2; lactam 1-6 (inferred); N-terminus and C-terminus assumed) | ~302 nM | 302 ± 50 nM | –
7 | CC[C@H](C)[C@@H]1NC(=O)[C@H](CC(N)=O)NC(=O)[C@@H](N)CC(=O)NCCCC[C@@H](C(N)=O)NC(=O)[C@H](Cc2c[nH]c3ccccc23)NC(=O)[C@@H]2C[C@H](n3cc(Cc4cc(C)cc(C)c4)nn3)CN2C1=O [cPT 28] (H-DNI[X19]WK-NH2; lactam 1-6 (inferred); N-terminus and C-terminus assumed) | 2000 nM | – | –
8 | CC[C@H](C)[C@@H]1NC(=O)[C@H](CC(N)=O)NC(=O)[C@@H](N)CC(=O)NCCCC[C@@H](C(N)=O)NC(=O)[C@H](Cc2c[nH]c3ccccc23)NC(=O)[C@@H]2C[C@H](n3cc(Cc4ccc(C)c(C)c4)nn3)CN2C1=O [cPT 29] (H-DNI[X20]WK-NH2; lactam 1-6 (inferred); N-terminus and C-terminus assumed) | 8000 nM | – | –
9 | CC[C@H](C)[C@@H]1NC(=O)[C@H](CC(N)=O)NC(=O)[C@@H](N)CC(=O)NCCCC[C@@H](C(N)=O)NC(=O)[C@H](Cc2c[nH]c3ccccc23)NC(=O)[C@@H]2C[C@H](n3cc(Cc4ccc(Cl)c(F)c4)nn3)CN2C1=O [cPT 32] (H-DNI[X12]WK-NH2; lactam 1-6) | ~7300 nM | 7300 ± 740 nM | –
10 | CC[C@H](C)[C@@H]1NC(=O)[C@H](CC(N)=O)NC(=O)[C@@H](N)CC(=O)NCCCC[C@@H](C(N)=O)NC(=O)[C@H](Cc2c[nH]c3ccccc23)NC(=O)[C@@H]2C[C@H](n3cc(Cc4ccc(I)cc4)nn3)CN2C1=O [cPT 33] (H-DNI[X5]WK-NH2; lactam 1-6) | ~6000 nM | 6000 ± 450 nM | –
11 | CC[C@H](C)[C@@H]1NC(=O)[C@H](CC(N)=O)NC(=O)[C@@H](N)CC(=O)NCCCC[C@@H](C(N)=O)NC(=O)[C@H](Cc2c[nH]c3ccccc23)NC(=O)[C@@H]2C[C@H](n3cc(C4C5CC6CC(C5)CC4C6)nn3)CN2C1=O (stereo partly shown) [compound 18] (H-DNI[X4]WK-NH2; lactam 1-6) | ~1300 nM | 1400 ± 200 nM | –
12 | CC[C@H](C)[C@@H]1NC(=O)[C@H](CC(N)=O)NC(=O)[C@@H](N)CC(=O)NCCCC[C@@H](C(N)=O)NC(=O)[C@H](Cc2c[nH]c3ccccc23)NC(=O)[C@@H]2C[C@H](n3cc(Cc4ccccc4)nn3)CN2C1=O [compound 19] (H-DNI[X14]WK-NH2; lactam 1-6) | ~438 nM | 438 ± 12 nM | –
13 | CCc1ccc(-c2cn([C@H]3C[C@H]4C(=O)N[C@@H](Cc5c[nH]c6ccccc56)C(=O)N[C@H](C(N)=O)CCCCNC(=O)C[C@H](N)C(=O)N[C@@H](CC(N)=O)C(=O)N[C@@H]([C@@H](C)CC)C(=O)N4C3)nn2)cc1 [compound 20] (H-DNI[X9]WK-NH2; lactam 1-6) | ~1200 nM | 1200 ± 500 nM | –
14 | CC[C@H](C)[C@@H]1NC(=O)[C@H](CC(N)=O)NC(=O)[C@@H](N)CC(=O)NCCCC[C@@H](C(N)=O)NC(=O)[C@H](Cc2c[nH]c3ccccc23)NC(=O)[C@@H]2C[C@H](n3cc(-c4ccc(C(C)C)cc4)nn3)CN2C1=O [compound 21] (H-DNI[X16]WK-NH2; lactam 1-6) | ~900 nM | 900 ± 45 nM | –
15 | CC[C@H](C)[C@@H]1NC(=O)[C@H](CC(N)=O)NC(=O)[C@@H](N)CC(=O)NCCCC[C@@H](C(N)=O)NC(=O)[C@H](Cc2c[nH]c3ccccc23)NC(=O)[C@@H]2C[C@H](n3cc(-c4ccc(C(C)(C)C)cc4)nn3)CN2C1=O [compound 22] (H-DNI[X15]WK-NH2; lactam 1-6) | ~350 nM | 350 ± 25 nM | –
16 | CC[C@H](C)[C@@H]1NC(=O)[C@H](CC(N)=O)NC(=O)[C@@H](N)CC(=O)NCCCC[C@@H](C(N)=O)NC(=O)[C@H](Cc2c[nH]c3ccccc23)NC(=O)[C@@H]2C[C@H](n3cc(-c4ccc(-c5ccccc5)cc4)nn3)CN2C1=O [compound 23] (H-DNI[X18]WK-NH2; lactam 1-6) | 269 nM | – | –
17 | CC[C@H](C)[C@@H]1NC(=O)[C@H](CC(N)=O)NC(=O)[C@@H](N)CC(=O)NCCCC[C@@H](C(N)=O)NC(=O)[C@H](Cc2c[nH]c3ccccc23)NC(=O)[C@@H]2C[C@H](n3cc(-c4cc5ccccc5cn4)nn3)CN2C1=O [compound 30] (H-DNI[X13]WK-NH2; lactam 1-6) | ~5000 nM | 5000 ± 850 nM | –
18 | CC[C@H](C)[C@@H]1NC(=O)[C@H](CC(N)=O)NC(=O)[C@@H](N)CC(=O)NCCCC[C@@H](C(N)=O)NC(=O)[C@H](Cc2c[nH]c3ccccc23)NC(=O)[C@@H]2C[C@H](n3cc(Cc4ccc(Cl)cc4)nn3)CN2C1=O [compound 31] (H-DNI[X8]WK-NH2; lactam 1-6) | ~1800 nM | 1800 ± 500 nM | –
19 | CC[C@H](C)[C@@H]1NC(=O)[C@H](CC(N)=O)NC(=O)[C@@H](N)CC(=O)NCCCC[C@@H](C(N)=O)NC(=O)[C@H](Cc2c[nH]c3ccccc23)NC(=O)[C@@H]2C[C@H](n3cc(-c4ccc(-c5cccs5)s4)nn3)CN2C1=O [compound 37] (H-DNI[X6]WK-NH2; lactam 1-6) | 405 nM | – | cytotoxicity (cell viability) (HOS.T4.R5 cells): no cytotoxicity was detected
20 | CC[C@H](C)[C@@H]1NC(=O)[C@H](CC(N)=O)NC(=O)CCC(=O)NCCCC[C@@H](C(N)=O)NC(=O)[C@H](Cc2c[nH]c3ccccc23)NC(=O)[C@@H]2C[C@H](n3cc(-c4ccc(-c5cccs5)cc4)nn3)CN2C1=O [compound 38] (NI[X1]WK-NH2; linker N-5 via Suc) | ~882 nM and 882 nM | – | fold decrease in potency compared to 36 (HIV-1Bal.01; infection inhibition): about 8 fold
